The source of these data is patent US20070213359A1 (ACADIA Pharmaceuticals Inc., priority 2005, published 2007).

One assay addresses T1, GHSR1a receptor (Homo sapiens, UniProt Q92847).
T1 construct: expressed in transfected cells; host or cells: HEK293 (membranes)
The assay is described as follows: 125I-Ghrelin binding assay. The note with it: Binding pKi, displacement of 125I-ghrelin (0.053 nM), membranes of HEK293 cells transfected with GHSR1a; Cheng-Prussoff; '—' not defined. As for the experimental part:
Plasmid DNA containing the GHSR1a receptor (12.5 ug/dish) in 0.675 ml DMEM was transfected into the cells by mixing with 180 ul PolyFect, 15 min later mixing in 2.25 ml 10% CS/DMEM, and transferring the mixture into the dish. At 16-18 h post transfection, medium was replaced with 25 ml fresh 10% FCS/1% PSG/DMEM to each dish for another 18-20 h. At approximately 48 hours post-transfection, cells were harvested in ice-cold membrane buffer (20 mM HEPES, 6 mM MgCl2, 1 mM EDTA, pH to 7.2) using a cell scraper, and pelleted by centrifugation.
Pelleted cells were added to a nitrogen cavitation chamber and 900 bar of pressure applied for 30 min. The pressure was slowly released the cavitated cells collected in 50 ml falcon tubes. The tubes were centrifuged at 1000 rpm, 4° C. for 10 min, and the supernatant collected. This centrifugation and collection was repeated two more times until the supernatant was free of precipitate (membranes are still in suspension). The supernatant was poured into a 50 ml centrifuge tube and centrifuged at 10.000 rpm, 4° C. for 20 min. The supernatant was discarded and the pellet re-suspended in 750 μl membrane binding buffer using a chilled 1 ml syringe with 25G5/8 needle to re-suspend membranes. The protein concentration was determined using the BioRad Protein Assay Dye Reagent according to the manufacturers instructions. The protein concentration was adjusted to 5 mg/ml and aliquots snap-frozed and stored at −80 C until use.
Membranes were thawed rapidly; diluted with binding buffer (25 mM Hepes+5 mM MgCl2, 1 mM CaCl2, 2.5 mM EDTA and 0.2% BSA) to a protein concentration of 0.8 ug/30 ul and placed on ice. 96-well plates (U-bottom wells) were prepared with serial dilutions (8 doses, 40 ul/w) of the test compounds. Membranes (30 uL/well) were then added, and incubated with test ligands for 30 min at room temperature with shaking. […] Binding was terminated by filtration through GF/B filters (presoaked with 0.1% polyethylenimine) with a Brandel 96-well harvester. The filters were washed with ice-cold binding buffer (150 ml/plate) and allowed to air-dry for 30 min. 50 ul MicroScient-20 cocktail was added to each dried well, the plates were sealed, and counted for 2 min/well using a TopCount scintillation counter (Packard).

The next assay addresses Ghrelin receptor (Homo sapiens, UniProt Q92847). The assay is described as follows: Receptor Selection and Amplification Technology (R-SAT) assay. It is filed as cell-based. Set-up: expressed in transfected cells; host or cells: NIH3T3. The note with it: for IC50: '—' not defined (nd used separately), read-out: RSAT pIC50 (converted); for Emax: read-out: RSAT Eff(%).

The structures appear in SMILES notation. Where two headings read alike, the source gives them in different places.

Sequence of Ghrelin receptor (Q92847 whole entry): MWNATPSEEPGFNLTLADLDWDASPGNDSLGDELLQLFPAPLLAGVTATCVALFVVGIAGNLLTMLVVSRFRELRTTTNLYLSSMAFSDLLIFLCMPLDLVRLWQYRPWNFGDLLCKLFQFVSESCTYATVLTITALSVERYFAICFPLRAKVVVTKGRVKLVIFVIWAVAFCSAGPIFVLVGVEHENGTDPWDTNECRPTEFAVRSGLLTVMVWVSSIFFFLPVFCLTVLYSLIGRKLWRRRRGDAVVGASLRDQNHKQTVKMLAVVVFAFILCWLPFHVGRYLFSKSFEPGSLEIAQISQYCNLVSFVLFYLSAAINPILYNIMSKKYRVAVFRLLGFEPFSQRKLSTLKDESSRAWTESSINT
T1 sequence (Q92847 whole entry): as above

As for `COc1cccc2c(C(=O)NCc3cccc(Cl)c3)cn(CCCN3C4CCC3CC(CCc3ccccc3)C4)c12` (stereo not drawn), the Ki on GHSR1a receptor is 7.94 nM. Also, on Ghrelin receptor, the IC50 was 1 nM and the Emax is 115%.
For `COc1cccc2c(C(=O)C3CC3)cn(CCCN3CCCN(Cc4ccc(F)cc4)CC3)c12`, in that order: 7.94 nM, 1.26 nM and 92%.
For `COc1cccc2c(C(=O)NCc3cccc(C)c3)cn(CCCN3C4CCC3CC(CC(=O)c3ccccc3)C4)c12` (stereo not drawn), in that order: 2 nM, 1.58 nM and 106%.
For `CCCCC[C@H]1C[C@H]2CC[C@@H](C1)N2CCCn1cc(C(=O)NCc2cccc(C)c2)c2cccc(OC)c21`, in that order: 50.1 nM, 2 nM and 90%.
As for `COc1cccc2c(C(=O)NCc3cccc(C)c3)cn(CCCN3CCC(c4nc5ccccc5s4)CC3)c12`, the Ki at GHSR1a receptor is 63.1 nM. In addition, at Ghrelin receptor, the IC50 was 2.51 nM and the Emax came out at 94%.
Consider `COc1cccc2c(C(=O)NCc3cccc(C)c3)cn(CCCN3CCC(Oc4ccc(F)cc4)CC3)c12`, for which, at GHSR1a receptor, the Ki is 100 nM. At Ghrelin receptor, the IC50 is 3.16 nM and the Emax came out at 81%.
For `COc1cccc2c(C(=O)C3CC3)cn(CCCN3C4CCC3CC(CCc3ccc(Cl)cc3)C4)c12` (stereo not drawn), in that order: 20 nM, 3.98 nM and 103%.
For the compound `COc1cccc2c(C(=O)C3CC3)cn(CCCN3C4CCC3CC(Oc3ccc(Cl)cc3)C4)c12` (stereo not drawn), at GHSR1a receptor, the affinity corresponds to a Ki of 158 nM. At Ghrelin receptor, the IC50 is 3.98 nM and the Emax is 86%.
In the case of `CC(=O)c1cn(CCCN2CCCN(CCc3ccccc3)CC2)c2c(Br)cccc12`, on GHSR1a receptor, the Ki was 79.4 nM. On Ghrelin receptor, the IC50 was 3.98 nM and the Emax is 98%.
Turning to `COc1cccc2c(C(=O)C3CC3)cn(CCCN3CCN(CCOc4ccc(Cl)cc4)CC3)c12`, the Ki at GHSR1a receptor was 126 nM. Also, on Ghrelin receptor, the IC50 was 20 nM and the Emax turned out to be 122%.
`COc1cccc2c(C(=O)NCc3cccc(C)c3)cn(CCCN3CCN(CCOc4ccccc4)CC3)c12` gave a Ki at GHSR1a receptor of 7.94 nM. Also, at Ghrelin receptor, the IC50 was 20 nM and the Emax was 89%.
`COc1cccc2c(C(=O)NCC(C)C)cn(CCCN3CCCN(Cc4ccc(F)cc4)CC3)c12` had a Ki on GHSR1a receptor of 100 nM. Further, at Ghrelin receptor, the IC50 was 25.1 nM and the Emax worked out at 118%.
For `COc1cccc2c(C(=O)NCc3cccc(C)c3)cn(CCCN3CCN(Cc4ccc(Cl)cc4Cl)CC3)c12`, in that order: 1000 nM, 25.1 nM and 110%.
For `COc1cccc2c(C(=O)Cc3ccccc3)cn(CCCN3CCC(CCOc4ccc(Cl)cc4)CC3)c12`, in that order: 251 nM, 25.1 nM and 121%.
In the case of `CCCCCC1CC2CCC(C1)N2CCCn1cc(C(C)=O)c2ccccc21` (stereo not drawn), the Ki at GHSR1a receptor is 1580 nM. On Ghrelin receptor, the IC50 is 31.6 nM and the Emax turned out to be 104%.
For `COc1cccc2c(C(=O)NCc3cccc(Cl)c3)cn(CCCN3C4CCC3CC(Oc3ccc(F)cc3)C4)c12` (stereo not drawn), in that order: 158 nM, 39.8 nM and 152%.
`COc1ccc2[nH]c3c(c2c1)CCN(CCCn1cc(C(C)=O)c2cccc(OC)c21)C3` gave a Ki on GHSR1a receptor of 1000 nM. Moreover, the IC50 at Ghrelin receptor was 50.1 nM. The Emax at Ghrelin receptor (percent inhibition at saturating ligand, normalized to reference ligand Substance P analog = 100%) was 123%.
On GHSR1a receptor, `COc1cccc2c(C(C)=O)cn(CCCN3C4CCC3CC(OCC3CC3)C4)c12` (stereo not drawn) gave a Ki of 1580 nM. Besides, on Ghrelin receptor, the IC50 was 50.1 nM and the Emax worked out at 113%.
For `COc1cccc2c(C(=O)C3CC3)cn(CCCN3CCC(Oc4ccccc4Cl)CC3)c12`, in that order: 3160 nM, 50.1 nM and 102%.
For `COc1cccc2c(C(=O)NCc3cccc(Cl)c3)cn(CCCN3CCC(Oc4ccc(Cl)cc4)CC3)c12`, in that order: 631 nM, 50.1 nM and 123%.
For `CCCCC[C@H]1C[C@H]2CC[C@@H](C1)N2CCCn1cc(C(=O)NCc2cccc(Cl)c2)c2cccc(OC)c21`, in that order: 200 nM, 50.1 nM and 123%.
Turning to `COc1cccc2c(C(=O)NCc3cccc(Cl)c3)cn(CCCN3[C@@H]4CC[C@H]3C[C@@H](CC(=O)c3ccccc3)C4)c12`, the affinity on GHSR1a receptor, expressed as Ki, was 63.1 nM. Moreover, on Ghrelin receptor, the IC50 is 50.1 nM and the Emax was determined as 111%.
As for `COc1cccc2c(C(=O)NCc3cccc(Cl)c3)cn(CCCN3CCN(CCOc4ccccc4)CC3)c12`, affinity on GHSR1a receptor was put at a Ki of 6.31 nM. At Ghrelin receptor, the IC50 was 79.4 nM and the Emax is 101%.
For `COc1cccc2c(C(=O)NCc3cccc(C)c3)cn(CCCN3CCC(c4nc(-c5cccnc5)no4)CC3)c12`, in that order: 158 nM, 79.4 nM and 97%.
For `COc1cccc2c(C(=O)NCc3cccc(Cl)c3)cn(CCCN3CCC(c4nc5ccccc5s4)CC3)c12`, in that order: 251 nM, 79.4 nM and 112%.
On to `COc1cccc2c(C(=O)NCc3cccc(Cl)c3)cn(CCCN3C4CCC3CC(CC(=O)c3ccccc3)C4)c12` (stereo not drawn), for which, on GHSR1a receptor, the Ki is 200 nM. Further, on Ghrelin receptor, the IC50 is 79.4 nM and the Emax turned out to be 104%.
Consider `COc1cccc2c(C(=O)NCC(C)C)cn(CCCN3CCCN(CCc4ccccc4)CC3)c12`, for which the affinity at GHSR1a receptor, expressed as Ki, was 794 nM. For the same compound, at Ghrelin receptor, the IC50 is 100 nM and the Emax came to 114%.
`CCCCC[C@H]1C[C@H]2CC[C@@H](C1)N2CCCn1cc(C(C)=O)c2ccccc21`: on GHSR1a receptor, affinity was put at a Ki of 2510 nM. Moreover, on Ghrelin receptor, the IC50 is 100 nM and the Emax was 118%.
For `CCCOC1CCN(CCCn2cc(C(=O)CC)c3cc(Br)ccc32)CC1`, in that order: 10000 nM, 158 nM and 90%.
Turning to `COc1cccc2c(C(=O)NCc3cccc(Cl)c3)cn(CCCNCCOc3ccccc3)c12`, at GHSR1a receptor, the Ki was 39.8 nM. Moreover, on Ghrelin receptor, the IC50 is 251 nM and the Emax was 120%.
For `COc1cccc2c(C(=O)NCc3cccc(Cl)c3)cn(CCCN3CCN(CCOc4ccc(Cl)cc4)CC3)c12`, in that order: 15.8 nM, 251 nM and 104%.
For `Cc1cccc(CNC(=O)c2cn(CCCN3C4CCC3CC(CCc3ccccc3)C4)c3ccccc23)c1` (stereo not drawn), in that order: 631 nM, 316 nM and 108%.
For `CC(=O)c1cn(CCCN2[C@@H]3CC[C@H]2C[C@@H](Oc2ccc(Cl)cc2)C3)c2ccccc12`, in that order: 7940 nM, 398 nM and 107%.
`COc1cccc2c(C(=O)NCc3cccc(C)c3)cn(CCCNC3Cc4ccccc4C3)c12` had a Ki at GHSR1a receptor of 79.4 nM. Also, on Ghrelin receptor, the IC50 is 398 nM and the Emax came out at 84%.
On GHSR1a receptor, `COc1cccc2c(C(=O)NCc3cccc(C)c3)cn(CCCN3CCN(CCOc4ccc(Cl)cc4)CC3)c12` had an inhibitory constant (Ki) of 126 nM. At Ghrelin receptor, the IC50 is 501 nM and the Emax amounted to 79%.
For `COc1cccc2c(C(=O)NCc3cccc(Cl)c3)cn(CCCNC3Cc4ccccc4C3)c12`, in that order: 63.1 nM, 794 nM and 133%.
As for `COc1cccc2c(C(=O)c3ccccc3)cn(CCCN3CCN(CCOc4ccc(Cl)cc4)CC3)c12`, at GHSR1a receptor, the Ki is 126 nM. For the same compound, on Ghrelin receptor, the IC50 was 1000 nM and the Emax came out at 66%.
As to `COc1cccc2c(C(=O)NCc3cccc(C)c3)cn(CCCNCCOc3ccccc3)c12`, the Ki on GHSR1a receptor is 100 nM. In addition, the Emax on Ghrelin receptor was determined as 52%.
For `COc1cccc2c(C(=O)NCC(C)C)cn(CCCN3CCC(CCOc4ccc(Cl)cc4)CC3)c12`, in that order: 158 nM and 45%.
For `COc1cccc2c(C(=O)NCc3cccc(Cl)c3)cn(CCCN3CCC(CCOc4ccc(Cl)cc4)CC3)c12`, in that order: 251 nM and 46%.

What is called Ki is the dissociation constant of the complex between target and ligand, obtained from inhibition or displacement. A low value points to tighter binding.
